Assay results taken from PubChem BioAssay AID1963870 (Molecular Pharmacology Branch, DTP, NCI, 2024).
pIC50: −log10 of the molar value.

Tested on: 292921-168-R-J2-PDC KRAS tumor spheroid viability
Test: Anticancer human tumor 292921-168-R-J2-PDC patient-derived pancreatic carcinoma cell line growth inhibition [KRAS2]
Details: spheroids with HUVEC and MSC; for pIC50: curve of first compound; for viability, T/C: stronger effect = lower value
Outline: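 Combination screen of spheroid viability in tumor-cell co-cultures with endothelial (HUVEC) and mesenchymal stem cell stroma. Each agent was tested in half-log dilutions, topping at clinical Cmax or at 10 microM without a known Cmax.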

[1] = second compound 0.1 µM, first compound 0.000316 µM
[2] = second compound 0.1 µM, first compound 0.001 µM
[3] = second compound 0.1 µM, first compound 0.00316 µM
[4] = second compound 0.1 µM, first compound 0.01 µM
[5] = second compound 0.1 µM, first compound 0.0316 µM
[6] = second compound 0.1 µM, first compound 0.1 µM
[7] = second compound 0.316 µM, first compound 0.000316 µM
[8] = second compound 0.316 µM, first compound 0.001 µM
[9] = second compound 0.316 µM, first compound 0.00316 µM
[10] = second compound 0.316 µM, first compound 0.01 µM
[11] = second compound 0.316 µM, first compound 0.0316 µM
[12] = second compound 0.316 µM, first compound 0.1 µM
[13] = second compound 1 µM, first compound 0.000316 µM
[14] = second compound 1 µM, first compound 0.001 µM
[15] = second compound 1 µM, first compound 0.00316 µM
[16] = second compound 1 µM, first compound 0.01 µM
[17] = second compound 1 µM, first compound 0.0316 µM
[18] = second compound 1 µM, first compound 0.1 µM
[19] = second compound 3.16 µM, first compound 0.000316 µM
[20] = second compound 3.16 µM, first compound 0.001 µM
[21] = second compound 3.16 µM, first compound 0.00316 µM
[22] = second compound 3.16 µM, first compound 0.01 µM
[23] = second compound 3.16 µM, first compound 0.0316 µM
[24] = second compound 3.16 µM, first compound 0.1 µM
[25] = second compound 10 µM, first compound 0.000316 µM
[26] = second compound 10 µM, first compound 0.001 µM
[27] = second compound 10 µM, first compound 0.00316 µM
[28] = second compound 10 µM, first compound 0.01 µM
[29] = second compound 10 µM, first compound 0.0316 µM
[30] = second compound 10 µM, first compound 0.1 µM
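Further: drug exposure lasted seven days after spheroids formed for three days.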
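Wherever viability, T/C is given: percent of DMSO vehicle control viability which is 100%.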

CC(C)n1nc(-c2ccc3oc(N)nc3c2)c2c(N)ncnc21 + C=CC(=O)N1CCN(c2nc(=O)n(-c3c(C)ccnc3C(C)C)c3nc(-c4c(O)cccc4F)c(F)cc23)C(C)C1 showed a pIC50 (second compound 0.1 µM) of 8.16, a pIC50 (second compound 0.316 µM) of 8.02 and a pIC50 (second compound 1 µM) of 7.93. For the same compound, the pIC50 (second compound 3.16 µM) was 8.31, the pIC50 (second compound 10 µM) was greater than 9.50 and the viability, T/C [1] was 107%. It also gave a viability, T/C [2] of 88.6%, a viability, T/C [3] of 62% and a viability, T/C [4] of 44.5%. It also gave a viability, T/C [5] of 32.8%, a viability, T/C [6] of 27% and a viability, T/C [7] of 111%. It also gave a viability, T/C [8] of 99.7%, a viability, T/C [9] of 66.9% and a viability, T/C [10] of 53.6%. The viability, T/C [11] was 33.6%, the viability, T/C [12] was 29.7% and the viability, T/C [13] was 121%. The viability, T/C [14] was 99.7%, the viability, T/C [15] was 77.1% and the viability, T/C [16] was 50.4%. It also gave a viability, T/C [17] of 38.3%, a viability, T/C [18] of 32.3% and a viability, T/C [19] of 68.4%. It also gave a viability, T/C [20] of 72.6%, a viability, T/C [21] of 55.3% and a viability, T/C [22] of 40.1%. The viability, T/C [23] was 36.7%, the viability, T/C [24] was 30.9% and the viability, T/C [25] was 26.3%. It also gave a viability, T/C [26] of 33.3%, a viability, T/C [27] of 30% and a viability, T/C [28] of 31.2%. It also gave a viability, T/C [29] of 29.5% and a viability, T/C [30] of 27.1%.

CC1(C)CCC(CN2CCN(c3ccc(C(=O)NS(=O)(=O)c4ccc(NCC5CCOCC5)c([N+](=O)[O-])c4)c(Oc4cnc5[nH]ccc5c4)c3)CC2)=C(c2ccc(Cl)cc2)C1 + CC1OCC2(CCN(c3cnc(Sc4ccnc(N)c4Cl)c(N)n3)CC2)C1N was tested, and the pIC50 (second compound 0.1 µM) was 5.79, the pIC50 (second compound 0.316 µM) was 5.84 and the pIC50 (second compound 1 µM) was greater than 7.50. It also gave a pIC50 (second compound 3.16 µM) greater than 7.50, a pIC50 (second compound 10 µM) greater than 7.50 and a viability, T/C [5] of 77.7%. For the same compound, the viability, T/C [6] was 81.6%, the viability, T/C (second compound 0.1 µM, first compound 0.316 µM) was 71.8% and the viability, T/C (second compound 0.1 µM, first compound 1 µM) was 69.8%. The viability, T/C (second compound 0.1 µM, first compound 3.16 µM) was 21.9%, the viability, T/C (second compound 0.1 µM, first compound 10 µM) was 11.7% and the viability, T/C [11] was 59.7%. It also gave a viability, T/C [12] of 65.9%, a viability, T/C (second compound 0.316 µM, first compound 0.316 µM) of 64.2% and a viability, T/C (second compound 0.316 µM, first compound 1 µM) of 58.9%. For the same compound, the viability, T/C (second compound 0.316 µM, first compound 3.16 µM) was 29.6%, the viability, T/C (second compound 0.316 µM, first compound 10 µM) was 7.43% and the viability, T/C [17] was 46.5%. For the same compound, the viability, T/C [18] was 51.4%, the viability, T/C (second compound 1 µM, first compound 0.316 µM) was 46.1% and the viability, T/C (second compound 1 µM, first compound 1 µM) was 42.9%. It also gave a viability, T/C (second compound 1 µM, first compound 3.16 µM) of 17.8%, a viability, T/C (second compound 1 µM, first compound 10 µM) of 7.41% and a viability, T/C [23] of 38.8%. It also gave a viability, T/C [24] of 40.2%, a viability, T/C (second compound 3.16 µM, first compound 0.316 µM) of 37.6% and a viability, T/C (second compound 3.16 µM, first compound 1 µM) of 39%. It also gave a viability, T/C (second compound 3.16 µM, first compound 3.16 µM) of 14.1%, a viability, T/C (second compound 3.16 µM, first compound 10 µM) of 7.38% and a viability, T/C [29] of 33.3%. For the same compound, the viability, T/C [30] was 32.8%, the viability, T/C (second compound 10 µM, first compound 0.316 µM) was 33.2% and the viability, T/C (second compound 10 µM, first compound 1 µM) was 34.7%. It also gave a viability, T/C (second compound 10 µM, first compound 3.16 µM) of 13.1% and a viability, T/C (second compound 10 µM, first compound 10 µM) of 1.65%.

CN(C)C/C=C/C(=O)Nc1cc2c(Nc3ccc(F)c(Cl)c3)ncnc2cc1O[C@H]1CCOC1 + CC1OCC2(CCN(c3cnc(Sc4ccnc(N)c4Cl)c(N)n3)CC2)C1N gave a pIC50 (second compound 0.1 µM) of less than 7.00, a pIC50 (second compound 0.316 µM) of 9.05 and a pIC50 (second compound 1 µM) of less than 7.00. For the same compound, the pIC50 (second compound 3.16 µM) was greater than 9.50, the pIC50 (second compound 10 µM) was less than 7.00 and the viability, T/C [1] was 82.2%. It also gave a viability, T/C [2] of 73.3%, a viability, T/C [3] of 60.9% and a viability, T/C [4] of 64.3%. The viability, T/C [5] was 57.5%, the viability, T/C [6] was 57.4% and the viability, T/C [7] was 53.5%. For the same compound, the viability, T/C [8] was 48.3%, the viability, T/C [9] was 46.9% and the viability, T/C [10] was 45.9%. The viability, T/C [11] was 52.3%, the viability, T/C [12] was 46.1% and the viability, T/C [13] was 92%. The viability, T/C [14] was 78%, the viability, T/C [15] was 94% and the viability, T/C [16] was 88.6%. It also gave a viability, T/C [17] of 93%, a viability, T/C [18] of 79.8% and a viability, T/C [19] of 23.2%. For the same compound, the viability, T/C [20] was 25.3%, the viability, T/C [21] was 28.8% and the viability, T/C [22] was 29.8%. For the same compound, the viability, T/C [23] was 31.2%, the viability, T/C [24] was 33.2% and the viability, T/C [25] was 50.8%. It also gave a viability, T/C [26] of 75.5%, a viability, T/C [27] of 82.6% and a viability, T/C [28] of 88.3%. It also gave a viability, T/C [29] of 91.5% and a viability, T/C [30] of 85.5%.
